Measured values: patent US8138214B2, “Pharmaceutical composition” (Shanghai Allist Pharmaceutical, Inc., priority 2007, dated 2012)

Legend:
[1] = dog, in vivo, po, 27 mg/kg
Method: (I) Beagle dogs are selected as experimental animals, six dogs per group. 2-butyl-4-chloro-1-[2′-(1H-tetrazol-5-yl) 1,1′-biphenyl-methyl]imidazole-5-carboxylic acid, 1-[(isopropoxy)carbonyloxy]methyl ester suspended in physiologic saline is administered in single dose of drug by gavage in dosage level of 3.0 mg/kg, 9.0 mg/kg, and 27 mg/kg. Blood samples were drawn for each dosage group at set time point. […] Determine the level of the active metabolite in plasma, calculate EXP3174's pharmacokinetic parameters according to the concentration-time curve, and investigate the correlation between dosage and main pharmacokinetic parameters Cmax and AUC0-t.

[2] = test system: spontaneously hypertensive rat (SHR); experiment: Blood pressure in spontaneously hypertensive rat after gavage; format: in vivo; conditions: for blood pressure decrease: SHR, dispersed in physiologic saline

correlation between dosage and Cmax and AUC0-t of EXP3174 [1]: proportional to the dosage
SMILES: CCCCc1nc(Cl)c(C(=O)OCOC(=O)OC(C)C)n1Cc1ccc(-c2ccccc2-c2nnn[nH]2)cc1 [Compound I, 2-butyl-4-chloro-1-[2′-(1H-tetrazol-5-yl)1,1′-biphenyl-methyl]imidazole-5-carboxylic acid, 1-[(isopropoxy)carbonyloxy]methyl ester]
blood pressure decrease ([2]; 15 mg/kg by gavage): 10 mm of mercury column
blood pressure decrease ([2]; 30 mg/kg by gavage): 20 mm of mercury column
antihypertensive effect ([2]; rats, oral dosage no less than 15 mg/kg): significant antihypertensive effect
